Results published in patent US20240287046A1, “COMPOUNDS AND RADIOLIGANDS FOR TARGETING NEUROTENSIN RECEPTOR AND USES THEREOF” (Full-Life Technologies HK Limited, priority 2022, published 2024).

Tested on: ASPC-1 tumor
Assay: In vivo efficacy of ^225Ac therapy
Conditions: ASPC-1 tumor-bearing mice
Description: In vivo efficacy of the ^177Lu labeled complexes and ^225Ac labeled complexes of the present application was evaluated in ASPC-1 tumor-bearing mice. For ^177Lu therapy study, animals in each group were dosed with vehicle or 0.6 mCi activity of the radiolabeled complexes at Day 1 and Day 5, respectively. For ^225Ac therapy studies, animals in each group were administered with a single dose of vehicle, 18, 37 or 74 KBq activity of the radiolabeled complexes, respectively.
The tumor volume (V) was determined according to the equation (V=[…]×L×W×H) at different time points, where L is the longest axis and W is the perpendicular axis to L, and H is the perpendicular axis to L and W plane. Endpoint (sacrifice) criteria were defined as either when the tumor volume exceeded 1.5 cm^3, or 20% body weight loss.

In the case of COc1cccc(OC)c1-c1cc(C(=O)NC2(C(=O)O)C3CC4CC(C3)CC2C4)nn1-c1ccc(NC(=O)CCCN(C)CCCN(C)C(=O)CN2CCN(CC(=O)[O-])CCN(CC(=O)[O-])CCN(CC(=O)[O-])CC2)cc1C(C)C.[225Ac+3] (centres unmarked) [^225Ac—I-5], the “tumor inhibition compared to the vehicle group” value (single dose of 18, 37 or 74 KBq) is reported as “significant tumor inhibition” and the “dose sufficient to achieve the maximal effect” value (single dose) is reported as 37 KBq.
